Common to all, as to type: toxicity, cell-based
One data set relates to HEK-293T. The data set can be described thus: Incucyte cell viability with HEK293T. Conditions: human, 10 µM, compound concentration 10 uM.
The subject of another data set is U2OS. The data set can be described thus: Incucyte cell viability with U2OS. Conditions: human, 10 µM, compound concentration 10 uM.
In a further data set the test system is Fibroblast. The experiment in a line: Incucyte cell viability with human fibroblast. As to conditions: 10 µM, compound concentration 10 uM.
Where [1] appears, read: 0 h, replicate number 2, timepoint 0 hours.
Setting [2] is: 6 h, replicate number 1, timepoint 6 hours.
Where [3] appears, read: 12 h, replicate number 1, timepoint 12 hours.
The mark [4] stands for this setting: 12 h, replicate number 2, timepoint 12 hours.
The mark [5] stands for this setting: 18 h, replicate number 1, timepoint 18 hours.
Setting [6] is: 18 h, replicate number 2, timepoint 18 hours.
[7] abbreviates: 24 h, replicate number 1, timepoint 24 hours.
The mark [8] stands for this setting: 24 h, replicate number 2, timepoint 24 hours.
[9] abbreviates: 0 h, replicate number 1, timepoint 0 hours.
[10] abbreviates: 6 h, replicate number 2, timepoint 6 hours.

Results on nine molecules are retold here after ChEMBL document CHEMBL5058564, “EUbOPEN Chemogenomics Library 2 (Incucyte)” (2022).

Structures are written as SMILES.
Further: unitless GR value; below 1 slowed growth and below 0 cell loss.

In the case of `O=C(c1cc(C2CC2)on1)N(C1CCCCC1)C1CCCCC1`, the “Growth Rate” value with HEK-293T (setting [1]) was 0.08; in the data set with HEK-293T (setting [2]) it was 0.27; in the data set on HEK-293T (setting [3]) it was 0.55; in the data set with HEK-293T (setting [4]), 0.56; in the data set on HEK-293T (setting [5]), 0.64; with HEK-293T (setting [6]) it was 0.68. Moreover, the “Growth Rate” value with HEK-293T (setting [7]) is 0.74; in the data set with HEK-293T (setting [8]), 0.67; in the data set with U2OS (setting [9]), 0.64; in the data set with U2OS (setting [2]), 0.89; in the data set on U2OS (setting [10]) it was 0.71; in the data set with U2OS (setting [3]), 0.7. Further, the “Growth Rate” value in the data set on U2OS (setting [8]) is reported as 1; with Fibroblast (setting [9]), 0.81; in the data set with Fibroblast (setting [2]), -0.36; in the data set on Fibroblast (setting [3]), 0.15; in the data set with Fibroblast (setting [4]), 0.97; in the data set on Fibroblast (setting [5]), 0.82. Moreover, the figures for the “Growth Rate” value with Fibroblast (setting [6]), with Fibroblast (setting [7]) and with Fibroblast (setting [8]) were 0.86, 0.78 and 0.8, respectively.
On to `CC(C)c1cc(-c2ccc(F)c3ccccc23)nc(N)n1`, for which the “Growth Rate” value is 0.46 in the data set on HEK-293T (setting [9]); 0.76 in the data set on HEK-293T (setting [1]); 0.72 in the data set with HEK-293T (setting [10]); -0.96 in the data set with U2OS (setting [1]); 0.62 with U2OS (setting [2]); 0.83 in the data set with U2OS (setting [10]). The “Growth Rate” value is given as 0.81 in the data set on U2OS (setting [3]); 0.86 in the data set with U2OS (setting [5]); 0.79 with U2OS (setting [6]); 0.73 in the data set on U2OS (setting [7]); 0.89 with U2OS (setting [8]); -0.03 with Fibroblast (setting [9]). In addition, the “Growth Rate” value came to 0.51 in the data set with Fibroblast (setting [2]), 0.58 in the data set on Fibroblast (setting [3]), 0.4 in the data set with Fibroblast (setting [5]) and 0.62 in the data set on Fibroblast (setting [7]).
For `N=C(N)NCCC[C@@H](NC(=O)C(c1ccccc1)c1ccccc1)C(=O)NCc1ccc(CNC(N)=O)cc1.O=C(O)C(F)(F)F.O=C(O)C(F)(F)F`, the “Growth Rate” value was determined as 1 in the data set on HEK-293T (setting [2]); 0.41 in the data set on HEK-293T (setting [10]); 0.8 in the data set with HEK-293T (setting [3]); 0.83 in the data set with HEK-293T (setting [5]); 0.98 in the data set on HEK-293T (setting [7]); 0.75 with U2OS (setting [1]). In addition, the “Growth Rate” value in the data set on U2OS (setting [2]) is given as 0.1; in the data set on U2OS (setting [10]), 0.61; in the data set with U2OS (setting [3]), 0.58; in the data set on U2OS (setting [4]) it was 0.93; in the data set on U2OS (setting [5]), 0.59; in the data set with U2OS (setting [6]) it was 0.96. In addition, the “Growth Rate” value is given as 0.82 with U2OS (setting [7]); 0.83 in the data set with U2OS (setting [8]); -0.19 in the data set on Fibroblast (setting [9]); 0.44 in the data set on Fibroblast (setting [2]); 0.45 in the data set on Fibroblast (setting [10]); 0.58 in the data set with Fibroblast (setting [3]). In addition, the results for the “Growth Rate” value in the data set on Fibroblast (setting [4]), in the data set on Fibroblast (setting [5]) and with Fibroblast (setting [7]) were 0.67, 0.41 and 0.52, respectively.
Take `Cl.NCCc1c[nH]c2ccc(O)cc12` [SEROTONIN HYDROCHLORIDE]: the “Growth Rate” value with HEK-293T (setting [9]) is on record as 0.58; with HEK-293T (setting [1]) it was 0.43; in the data set on U2OS (setting [9]), 0.29; with U2OS (setting [1]), 0.12; with U2OS (setting [2]), 0.46; in the data set with U2OS (setting [10]) it was 0.79. Besides, the “Growth Rate” value is reported as 0.38 in the data set on U2OS (setting [3]); 0.97 with U2OS (setting [4]); 0.67 in the data set on U2OS (setting [5]); 0.62 in the data set on U2OS (setting [7]); 0.19 with Fibroblast (setting [1]); 1 in the data set on Fibroblast (setting [4]).
For the molecule `O=C1NC(Nc2ccccc2)=N/C1=C\c1ccc2c(c1)OCO2`, the “Growth Rate” value turned out to be 0.84 in the data set with HEK-293T (setting [9]); 0.94 in the data set with HEK-293T (setting [1]); 0.37 in the data set with HEK-293T (setting [2]); 0.13 in the data set on HEK-293T (setting [10]); 0.75 in the data set with HEK-293T (setting [3]); 0.51 in the data set with HEK-293T (setting [4]). For the same molecule, the “Growth Rate” value is given as 0.75 in the data set on HEK-293T (setting [5]); 0.58 in the data set on HEK-293T (setting [6]); 0.82 in the data set with HEK-293T (setting [7]); 0.78 in the data set with HEK-293T (setting [8]); -1 in the data set on U2OS (setting [1]); -0.77 in the data set with U2OS (setting [2]). The “Growth Rate” value in the data set with U2OS (setting [10]) was 0.8; in the data set on U2OS (setting [3]) it was 0.12; in the data set with U2OS (setting [4]), 0.66; in the data set on U2OS (setting [5]), 0.39; with U2OS (setting [6]) it was 0.59; in the data set on U2OS (setting [7]) it was 0.59. Further, the “Growth Rate” value with U2OS (setting [8]) turned out to be 0.63; in the data set with Fibroblast (setting [1]) it was 0.56; with Fibroblast (setting [2]) it was 0.26; in the data set on Fibroblast (setting [3]), 0.74.
For the molecule `CCOC(=O)c1c(/C(C#N)=C\N)c2ccc(Cl)c(Cl)c2n1C`, the “Growth Rate” value with HEK-293T (setting [9]) was 0.5; with HEK-293T (setting [1]), 0.59; in the data set with HEK-293T (setting [2]) it was 0.56; in the data set with HEK-293T (setting [10]) it was 0.47; in the data set on HEK-293T (setting [4]), 0.77; with HEK-293T (setting [5]) it was 0.9. The “Growth Rate” value in the data set on HEK-293T (setting [6]) was 0.7; in the data set on HEK-293T (setting [7]), 0.99; in the data set with HEK-293T (setting [8]), 0.93; in the data set with U2OS (setting [9]), -0.21; with U2OS (setting [2]), 0.29; in the data set on U2OS (setting [3]) it was 0.64. The “Growth Rate” value is 0.5 in the data set on U2OS (setting [5]); 0.73 in the data set with U2OS (setting [7]); 0.69 with Fibroblast (setting [9]); 0.64 with Fibroblast (setting [3]); 0.53 in the data set on Fibroblast (setting [4]); 0.47 in the data set with Fibroblast (setting [5]). The “Growth Rate” value in the data set on Fibroblast (setting [6]) is reported as 0.72; in the data set with Fibroblast (setting [7]) it was 0.29; with Fibroblast (setting [8]) it was 0.73.
As for `Cc1ccccc1N1CCN(CCc2nnc3n2CCCC3)CC1.Cl` [DAPIPRAZOLE HYDROCHLORIDE], the “Growth Rate” value with HEK-293T (setting [1]) was -0.18; in the data set on HEK-293T (setting [2]), 0.83; in the data set with HEK-293T (setting [5]), 0.93; with HEK-293T (setting [7]) it was 0.96; in the data set with U2OS (setting [9]), 0.33; with U2OS (setting [2]), 0.94. Besides, the “Growth Rate” value in the data set on U2OS (setting [3]) was 0.78; in the data set on Fibroblast (setting [9]), -0.42; with Fibroblast (setting [1]), 0.16; in the data set on Fibroblast (setting [10]), 0.85; with Fibroblast (setting [3]), 0.81; in the data set with Fibroblast (setting [7]), 0.68.
Consider `CSc1nc(NC2CCCC2)c([N+](=O)[O-])c(NC2CCCC2)n1` [GS-39783], for which the “Growth Rate” value with HEK-293T (setting [9]) is on record as 0.5; in the data set on HEK-293T (setting [1]), 0.78; in the data set with HEK-293T (setting [3]), 0.97; with HEK-293T (setting [4]), 0.85; with HEK-293T (setting [6]) it was 0.92; with U2OS (setting [9]), 0.05. The “Growth Rate” value in the data set with U2OS (setting [1]) is on record as -1; with U2OS (setting [10]) it was 0.83; in the data set with U2OS (setting [4]) it was 0.75; in the data set on U2OS (setting [6]), 0.75; in the data set with U2OS (setting [8]), 0.92; in the data set with Fibroblast (setting [1]) it was 0.9. Further, the “Growth Rate” value is -0.14 in the data set on Fibroblast (setting [2]); 0.69 in the data set with Fibroblast (setting [10]); -0.14 with Fibroblast (setting [3]); 0.18 in the data set on Fibroblast (setting [5]); 0.19 with Fibroblast (setting [7]).
With `COc1cc2nc(N3CCN(C(=O)C4CCCO4)CC3)nc(N)c2cc1OC.Cl.O.O` (stereo not drawn) [TERAZOSIN HYDROCHLORIDE], the “Growth Rate” value with HEK-293T (setting [9]) is on record as 0.72; in the data set with HEK-293T (setting [1]), 0.29; in the data set on HEK-293T (setting [2]), 0.91; in the data set on HEK-293T (setting [3]), 0.69; in the data set with HEK-293T (setting [4]), 0.83; with HEK-293T (setting [5]), 0.78. Also, the “Growth Rate” value is listed as 0.79 in the data set with HEK-293T (setting [6]); 0.87 with HEK-293T (setting [7]); 0.79 with HEK-293T (setting [8]); 0.74 with U2OS (setting [1]); 0.56 in the data set with U2OS (setting [2]); 0.76 in the data set on U2OS (setting [10]). The “Growth Rate” value with U2OS (setting [3]) was 0.73; in the data set on U2OS (setting [5]) it was 0.88; with U2OS (setting [7]), 0.99; with Fibroblast (setting [9]) it was 0.68; with Fibroblast (setting [1]) it was 0.43; with Fibroblast (setting [10]) it was 0.32. In addition, the “Growth Rate” value was 0.84 in the data set with Fibroblast (setting [4]), 0.8 with Fibroblast (setting [6]) and 0.57 in the data set with Fibroblast (setting [8]).
